ChEMBL document CHEMBL1201862, “PubChem BioAssay data set” (2004)
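Step 1: Grow cells in 96-well plates. Step 2: Expose to compound for 48 hours at 5 concentrations. Step 3: Interpolate endpoints linearly; if unreached, use highest concentration. Abbreviation: GI50, concentration required for 50% inhibition of growth.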 The source made the active and inactive calls. Rule as the data show it: active = GI50 up to about 1.1 µM and inactive = higher.

How the values were obtained:
Assay in all cases: NCI anticancer screen, dose series, 48 h
Hs-578T = system: Hs-578T
HL-60 = system: HL-60
SK-MEL-28 = system: SK-MEL-28
UO-31 = system: UO-31
NCI-H226 = system: NCI-H226
HOP-92 = system: HOP-92
DU-145 = system: DU-145
RXF 393 = system: RXF 393
RPMI-8226 = system: RPMI-8226
XF498 = system: XF498
SK-OV-3 = system: SK-OV-3
UACC-257 = system: UACC-257
OVCAR-4 = system: OVCAR-4
SNB-75 = system: SNB-75
SNB-78 = system: SNB-78
IGROV-1 = system: IGROV-1
UACC-62 = system: UACC-62
SF-539 = system: SF-539
KM12 = system: KM12
KM-20L2 = system: KM-20L2
SN12C = system: SN12C
SF-295 = system: SF-295
A498 = system: A498
SK-MEL-2 = system: SK-MEL-2
PC-3 = system: PC-3
OVCAR-5 = system: OVCAR-5
MDA-MB-231 = system: MDA-MB-231
SR = system: SR
NCI-H522 = system: NCI-H522
CCRF-CEM = system: CCRF-CEM
SK-MEL-5 = system: SK-MEL-5
M19-MEL = system: M19-MEL
SNB-19 = system: SNB-19
MCF7 = system: MCF7
HCT-15 = system: HCT-15
NCI-H23 = system: NCI-H23
NCI/ADR-RES = system: NCI/ADR-RES
LOX IMVI = system: LOX IMVI
MOLT-4 = system: MOLT-4
ACHN = system: ACHN
COLO 205 = system: COLO 205
DMS-273 = system: DMS-273
HCC 2998 = system: HCC 2998
M14 = system: M14
NCI-H460 = system: NCI-H460
HOP-62 = system: HOP-62
MDA-MB-435 = system: MDA-MB-435
HCT-116 = system: HCT-116
A549 = system: A549
DMS-114 = system: DMS-114
SW-620 = system: SW-620
786-0 = system: 786-0
EKVX = system: EKVX
OVCAR-3 = system: OVCAR-3
CAKI-1 = system: CAKI-1
HT-29 = system: HT-29
Malme-3M = system: Malme-3M
OVCAR-8 = system: OVCAR-8
TK-10 = system: TK-10
K562 = system: K562
U-251 = system: U-251
SF-268 = system: SF-268

CC(=O)OC12COC1CC(O)C1(C)C(=O)C(O)C3=C(C)C(O)CC(O)(C(OC(=O)c4ccccc4)C21)C3(C)C (configuration not stated)
GI50 (Hs-578T): 0.778 µM (active)
GI50 (HL-60): 2.52 µM (inactive)
GI50 (SK-MEL-28): 3.38 µM (inactive)
GI50 (UO-31): 67.1 µM (inactive)
GI50 (NCI-H226): 6.01 µM (inactive)
GI50 (HOP-92): > 100 µM (inactive)
GI50 (DU-145): 8.43 µM (inactive)
GI50 (RXF 393): > 65.6 µM (inactive)
GI50 (RPMI-8226): 1.25 µM (inactive)
GI50 (XF498): 2.36 µM (inactive)
GI50 (SK-OV-3): 2.31 µM (inactive)
GI50 (UACC-257): 5 µM (inactive)
GI50 (OVCAR-4): > 100 µM (inactive)
GI50 (SNB-75): 1.75 µM (inactive)
GI50 (SNB-78): > 100 µM (inactive)
GI50 (IGROV-1): 7.23 µM (inactive)
GI50 (UACC-62): > 100 µM (inactive)
GI50 (SF-539): 1.16 µM (inactive)
GI50 (KM12): 0.839 µM (active)
GI50 (KM-20L2): 1.41 µM (inactive)
GI50 (SN12C): 4.94 µM (inactive)
GI50 (SF-295): 26.3 µM (inactive)
GI50 (A498): > 100 µM (inactive)
GI50 (SK-MEL-2): 1.55 µM (inactive)
GI50 (PC-3): 3.03 µM (inactive)
GI50 (OVCAR-5): 3.94 µM (inactive)
GI50 (MDA-MB-231): 7.91 µM (inactive)
GI50 (SR): 5.12 µM (inactive)
GI50 (NCI-H522): 0.638 µM (active)
GI50 (CCRF-CEM): 3.8 µM (inactive)
GI50 (SK-MEL-5): 3.44 µM (inactive)
GI50 (M19-MEL): 7.67 µM (inactive)
GI50 (SNB-19): 5.31 µM (inactive)
GI50 (MCF7): 1.68 µM (inactive)
GI50 (HCT-15): > 100 µM
GI50 (NCI-H23): 3.36 µM (inactive)
GI50 (NCI/ADR-RES): > 100 µM (inactive)
GI50 (LOX IMVI): 1.82 µM (inactive)
GI50 (MOLT-4): 6.7 µM (inactive)
GI50 (ACHN): 90.2 µM (inactive)
GI50 (COLO 205): 1.14 µM (inactive)
GI50 (DMS-273): 0.731 µM (active)
GI50 (HCC 2998): 4.08 µM (inactive)
GI50 (M14): 5.94 µM (inactive)
GI50 (NCI-H460): 2.92 µM (inactive)
GI50 (HOP-62): 16.6 µM (inactive)
GI50 (MDA-MB-435): 0.408 µM (active)
GI50 (HCT-116): 1.67 µM (inactive)
GI50 (A549): 7.33 µM (inactive)
GI50 (DMS-114): 6.97 µM (inactive)
GI50 (SW-620): 0.989 µM (active)
GI50 (786-0): 13.4 µM (inactive)
GI50 (EKVX): > 86.5 µM (inactive)
GI50 (OVCAR-3): 2.55 µM (inactive)
GI50 (CAKI-1): > 96.2 µM (inactive)
GI50 (HT-29): 1.31 µM (inactive)
GI50 (Malme-3M): 3.78 µM (inactive)
GI50 (OVCAR-8): 6.98 µM (inactive)
GI50 (TK-10): > 74 µM (inactive)
GI50 (K562): 1.58 µM (inactive)
GI50 (U-251): 0.65 µM (active)
GI50 (SF-268): 3.41 µM (inactive)
